Experimental findings from BindingDB's records for patent US10208011 (G1 Therapeutics, Inc., 2019) are described below.

The target in experiment [1] is T1, Estrogen receptor (Homo sapiens, UniProt P03372).
T1 sequence (P03372 whole entry): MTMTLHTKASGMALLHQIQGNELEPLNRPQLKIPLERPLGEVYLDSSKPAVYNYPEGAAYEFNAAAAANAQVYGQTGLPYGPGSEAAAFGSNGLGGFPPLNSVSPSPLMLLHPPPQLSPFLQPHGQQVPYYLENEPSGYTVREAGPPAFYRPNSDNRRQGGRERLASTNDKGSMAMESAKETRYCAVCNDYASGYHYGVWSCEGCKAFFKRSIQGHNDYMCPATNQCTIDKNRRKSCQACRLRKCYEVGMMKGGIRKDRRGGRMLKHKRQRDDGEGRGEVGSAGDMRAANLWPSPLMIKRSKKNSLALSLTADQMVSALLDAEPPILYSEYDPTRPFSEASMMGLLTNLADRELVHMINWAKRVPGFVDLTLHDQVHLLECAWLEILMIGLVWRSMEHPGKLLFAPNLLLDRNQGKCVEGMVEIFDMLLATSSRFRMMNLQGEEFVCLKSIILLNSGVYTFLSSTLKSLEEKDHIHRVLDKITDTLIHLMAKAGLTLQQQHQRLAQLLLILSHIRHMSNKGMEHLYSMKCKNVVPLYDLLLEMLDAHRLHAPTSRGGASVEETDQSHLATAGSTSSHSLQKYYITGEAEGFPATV
The experiment can be described thus: Human ERalpha Reporter Assa. How it is done:
All reagents used in this assay was supplied in the Human ERα Reporter Assay by Indigo Biosciences # IB00401. In an effort to screen selective estrogen receptor degraders (SERDs), the Human ERα Reporter Assay, supplied by Indigo Biosciences, was utilized to quantify antagonist functional activity against the human estrogen receptor. Reporter cells were thawed at 37° C. and added to pre-warmed to 37° C. cell recovery medium (CRM). Stock concentration of 17β-estradiol was serially diluted in CRM. […] Cells plus 17β-estradiol were dispensed in a kit-supplied white walled 96-well plate. Concentrated stocks of test compounds were diluted to 2× working concentrations in cell screening medium (CSM). 2× concentrated compounds were added to the plated cells in a dose-dependent manner resulting in a final concentration range of 1E-11 to 1E-5 M and a final 17β-estradiol concentration of 8E-10 M. Assay plates were incubated for 24 hours in a humidified 37° C. incubator. Culture medium was removed from the assay plates by inversion. Detection substrate and buffer was warmed to room temperature, mixed thoroughly, and immediately added to the assay plates. […] Luminescence was measured in a Synergy HTX luminescence plate reader. Data is processed utilizing GraphPad Prism 7 by graphing the relative light units measured at each compound concentration.

For experiment [2], the target named is T1, Estrogen receptor. In words: Estrogen Receptor (ER) Degradation Assay. How it is done: A screening strategy was implemented utilizing an In-Cell Western assay to measure their ability to degrade the estrogen receptor in vitro. MCF7 cells, which are estrogen receptor positive, were plated at a cell density of […] into black walled clear bottom 96-well plates. Cells were incubated in phenol red free Dulbecco's Modified Eagle Media (DMEM) supplemented with 8% charcoal-stripped fetal bovine calf serum for 24 hours in a humidified 37° C. incubator. Concentrated stock compounds were diluted to 10× in complete media. Compounds were added to the plated cells in a dose-dependent manner ranging from 1E-12 to 1E-05 M and incubated for an additional 24 hours at 37° C. Culture medium was removed from the culture plates by gentle inversion. Cells were fixed in 4% paraformaldehyde in 1× phosphate buffered saline-calcium magnesium free (PBS-CMF) for 15 minutes at room temperature, washed 3 times for 5 minutes each in 1×PBS-CMF. […] ER protein expression was assessed by the Licor Odyssey CLx imaging system using Image Studio v5.2. Data is processed utilizing GraphPad Prism 7 by subtracting background from the vehicle and setting the vehicle to 100% ER activity, followed by comparing treated samples to vehicle.

With `Cc1cc(F)cc(C)c1C(=O)c1sc2cc(O)ccc2c1Oc1ccc(OCCN2CCCCC2)cc1` [US10208011, Compound 106], the IC50 in experiment [1] is less than 1 µM.
Turning to `Cc1cc(F)cc(C)c1C(=O)c1sc2cc(O)ccc2c1Oc1ccc(OCCN2CCCCCC2)cc1` [US10208011, Compound 107], the concentration for half-maximal inhibition (IC50) in experiment [1] is less than 1 µM.
Molecule `Cc1cc(F)cc(C)c1C(=O)c1sc2cc(O)ccc2c1Oc1ccc(OCCN2CCCC2)cc1` [US10208011, Compound 108] yielded an IC50 in experiment [2] of less than 1 µM.

As usually defined, the IC50 is the concentration that gives 50% inhibition.
